Where two headings read alike, the source gives them in different places.
Experiments:
[1] = test system: ER-null (SUM-159 or MDA-MB-231 cells); experiment: Antiproliferative assay in ER-null cells; assay type: cell-based
Description: (§1) FIG. 52: Comparative efficacy of TX-542 and SERDs in BC cells expressing WT and/or MT ERα: Using CRISPR-Cas9, both copies of WT ERα genes were knocked out in ZR-75 and T47-D, while only one copy of WT Era was knocked out in MCF-7 cells. Following knockout of WT ERα clones with stable expression of either Y537S ERα MT or the D538G ERα MT were selected. […] ERα-negative TNBC cells (SUM-159 and MDA-MB-231) were used as controls. Dose response curves were generated for ERX-11, TX-542 and SERDs using cell titer glo assays. IC50 values for each cell line and drug were calculated and tabulated. Tam=tamoxifen, ICI=fulvestrant, GDC-0810=Genentech SERD, AZD-9496 Astra Zeneca SERD, RAD-1901=Radius SERD, Palbo=Palbociclib. IC50 values<50 nM are shown in red.
(§2) TX-542. TX-542 was potent (IC50˜20-50 nM) as an antiproliferative agent against expressing MT-ERα, both in genetically modified MCF-7 cells with one WT-ERα allele and one MT-ERα allele introduced by CRISPR and genetically modified ZR-75 or T47-D cells in which both copies of WT-ERα alleles were replaced using CRISPR with MT-ERα. TX-542 had no activity against ER-null (SUM-159 or MDA-MB-231 cells) or non-tumorigenic breast epithelial cells, such as human mammary epithelial cells (HMEC). […] In addition, these agents are not able to consistently target all the MT-ERα forms in distinct genetic contexts, as shown in FIG. 52 and as reported by others.

[2] = test system: MCF-7 MT-ERα Y537S and D538G cells; assay type: cell-based; conditions: comparators at 200 nM in MCF-7 MT-ERα Y537S cells
[3] = test system: BC cells expressing MT-ERα (MCF-7, ZR-75, T47-D); experiment: Cell titer glo antiproliferative assay in MT-ERα BC cells; assay type: cell-based
Description: as §1, §2

[4] = test system: BC cells expressing MT-ERα; experiment: Boyden chamber invasion assay; assay type: cell-based
Description: FIG. 62: Effect of TX-542 on invasiveness of BC cells expressing Erα mutants in a Boyden chamber assay.
(§3) Since MT-ERα is primarily expressed in metastases, the inventors used metastatic models to evaluate effect of TX-542 on the development and progression of metastasis.

MT-ERα [5] = experiment: ChIP of MT-ERα DNA binding, TX-542; assay type: cell-based
[6] = test system: WT-ERα ZR-75 or MT-ERα MCF-7 xenografts; experiment: TX-542 in ERα BC xenografts; assay type: in vivo, nude mice
Experimental: FIGS. 59A-B: MCF-7 MT-ERa D538G and Y537S xenograft tumors were injected into the mammary fat pad of nude mice. Once the tumors were established (100 mm^3), treatment with either vehicle or TX-542 (10 mg/kg/ip) was commenced and their effect on tumor growth and mice body weights were graphed (n=9 per group).
(§4) To establish the pharmacokinetic (PK) profile of TX-542, the inventors worked with the UTSW preclinical pharmacology core to characterize pharmacologic properties of TX-542 (FIG. 58). These studies indicated an 8-h half-life of TX-542 in the plasma, with drug detectable in both the liver and kidney after intraperitoneal (i.p.) administration.

[7] = test system: MT-ERα expressing BC cells; experiment: Apoptosis by annexin staining; assay type: cell-based; conditions: within 72 h after treatment, 200 nM
Experimental: FIG. 55: Effect of 200 nM TX-542 on apoptosis of MT-ERα expressing BC cells.
(§5) The 200 nM dose for these drugs reflects the level at which each of these drugs has a significant effect on spheroid formation in the MCF-7 WT-ERa cells. Taken together, these studies indicate that TX-542 has significant activity against both WT-ERα and MT-ERα driven ERα+ BC cell lines and is a worthwhile candidate for further study.

Protein binding = assay type: in vitro ADME
[8] = test system: human mammary epithelial cells (HMEC); experiment: Antiproliferative assay of TX-542 in HMEC; assay type: cell-based
Experimental: as §2

ERα = assay type: cell-based; conditions: MT-ERα, 200 nM
[9] = test system: BC cells expressing WT-ERα and MT-ERα; experiment: Clonogenic assay; assay type: cell-based; conditions: 100 nM
Experimental: FIG. 53: Effect of 100 nM TX-542 on clonogenic survival of WT-ERα and MT-ERα BC cell lines.
as §5

[10] = test system: estrogen receptor-positive breast cancer; experiment: Growth inhibition of ER-positive breast cancer; assay type: cell-based
[11] = test system: MT-ERα expressing BC metastasis; experiment: Metastatic models (intracardiac, intratibial injection); assay type: in vivo, mice
Experimental: FIG. 63: Following intracardiac injection of luciferase-tagged ZR-75 MT-ERα Y537S tumors, mice are imaged five at a time under 2% isoflurane gas anesthesia. Each mouse is injected with D-Luciferin and imaged 10-15 minutes after the injection. BLI signal is quantified in regions of interest (ROIs) drawn around tumors, specific areas (for example cranial, thoracic or abdominal), whole body or tissues ex vivo and the signal is expressed as photons per second, representing the flux radiating omni-directionally from the user-defined region. Images are analyzed using Living Image 4.3.1 (PerkinElmer, Waltham, MA) software. Once the tumors were established (40,000 luminescene counts at 30 seconds exposure), mice were treated either with vehicle or TX-542. […] Relative luminescence counts are mapped (middle panel). Mice were sacrificed once symptomatic and the survival curves for vehicle treated (black) or TX-542 treated (red) are graphed (right panel) (n=6 in each group).
Once tumors were established, daily treatment of mice with either vehicle or TX-542 (10 mg/kg/ip) were performed. Results are shown and graphed (n=6).
as §3

[12] = Pharmacokinetic profile of TX-542; assay type: in vivo
Experimental: FIG. 58: PK properties of TX-542 indicate a half-life in plasma of 8 h and accumulation over time in tumor.
as §4

MT-ERα [13] = experiment: ERE luciferase reporter gene assay, TX-542; assay type: cell-based; conditions: minimal promoter with three copies of ERE
MCF-7 MT-ERα Y537S cells = assay type: cell-based; conditions: 200 nM

NCCC(=O)Nc1ccc(C(=O)Nc2ccc(C(=O)NCCc3ccc4ccccc4c3)cc2OCC2CCCCC2)cc1OCCO [TX-542]
activity against ER-null cells [1]: no activity | spheroid size or architecture [2]: disrupted spheroid architecture | IC50 ([3]; MCF-7, ZR-75 or T47-D cells expressing MT-ERα, read-out: IC50, antiproliferative): 20 to 50 nM | IC50 ([3]; MT-ERα alone (ZR-75 and T47-D) or with WT-ERa (MCF-7), read-out: IC50 in multiple MT-ERα models): < 50 nM | invasion of BC cells expressing MT-ERα [4]: potently affects the invasion | MT-ERα DNA binding (MT-ERα [5]): blocks both basal and estradiol-induced MT-ERα DNA binding | growth of established xenografts ([6]; 10 mg/kg/ip): potent activity | mouse body weights ([6]; 10 mg/kg/ip): no effect on mouse body weights | renal and liver parameters, histopathology, clinical chemistry ([6]; treated animals): lack of change in renal and liver parameters | apoptotic cell death [7]: induced apoptotic cell death | bound to proteins (Protein binding): 75% | activity against non-tumorigenic breast epithelial cells [8]: no activity | onset of effect on MT-ERα levels (ERα): not noticeable until 24 h | clonogenic survival [9]: significantly reduced the survival | growth inhibition of ER-positive breast cancer [10]: strong growth inhibition | specificity for ER-positive cells [10]: high specificity | growth of lung and bone metastasis ([11]; 10 mg/kg/ip): decrease the growth of lung metastasis | animals that formed mets ([11]; within 4 weeks, treatment started immediately after intracardiac injection): 1/6 | level in tumor tissue ([12]; 24 h after the last dose, daily i.p. 10 mg/kg): > 0.1 mg/g | time to steady state levels in tumor ([12]; MCF-Y537S xenografts, daily i.p. 10 mg/kg): 5 days | half-life ([12]; mouse, plasma, intraperitoneal): 8 h | concentration at 24 h ([12]; mouse, tumor, intraperitoneal, 10 mg/kg, 24 h after the last dose, read-out: corresponding tumor concentration): > 200 nM | ERE-driven transcription (MT-ERα [13]): decrease transcription | soft agar colony formation (MCF-7 MT-ERα Y537S cells): potently reduced soft agar colony formation

From patent US12275685B2, “Oligo-benzamide analogs and their use in cancer treatment” (Board of Regents, The University of Texas System, priority 2018, dated 2025)
